In the assay the test system is PC12 cells. Briefly: PC12 cell serum withdrawal model (MTS cell survival assay). The assay is classed as cell-based. The note with it: control cells = 100%; for 7 Day Survival Rate (%): 10 μM applied at serum withdrawal and every 48 hr, MTS assay at 7 days; for 2 Day Survival Rate (%): 10 μM applied once at serum withdrawal, MTS assay at 2 days. The text has this:
Serum withdrawal is a cytotoxic environmental challenge that results in cell death in cultured cell lines as well as in primary cells of various tissue origins, including nerve cells. In particular, pheochromocytoma (PC) 12 cells have been widely employed as an in vitro neuronal cell model for a wide variety of neurodegenerative and cell death related disorders (Muriel, et al, Mitochondrial free calcium levels (Rhod-2 fluorescence) and ultrastructural alterations in neuronally differentiated PC12 cells during ceramide-dependent cell death, J. Comp. Neurol., 2000, 426(2), 297-315; Dermitzaki, et al, Opioids transiently prevent activation of apoptotic mechanisms following short periods of serum withdrawal, J. Neurochem., 2000, 74(3), 960-969; Carlile, et al, Reduced apoptosis after nerve growth factor and serum withdrawal: conversion of tetrameric glyceraldehyde-3-phosphate dehydrogenase to a dimer, Mol. Pharmacol., 2000, 57(1), 2-12).
PC12 cells were cultured in sterile media (RPMI 1640) supplemented with 10% heat-inactivated horse serum and 5% fetal bovine serum (FBS). The culture medium also contained 1× Penicillin-Streptomycin-Neomycin antibiotic (50 μg, 50 μg, 100 μg, respectively). Medium was exchanged every other day and the cells were passed in log phase near confluence.
The control cells were cultured in regular media without any treatment. An enantiomer of Formula (Ib) or […] (10 μM) was mixed well in the medium and then applied to the cells. For the 2 day assay, an enantiomer of Formula (Ib) or […] (10 μM) was only applied to the cells once at the time of serum withdrawal. For the 7 day assay, an enantiomer of Formula (Ib) or Formula (IIb) (10 μM) was applied to the cells at the time of serum withdrawal and every 48 hr thereafter when cells were changed with fresh new serum-free medium. In the serum withdrawal group, the cells were cultured in serum-free medium with no additional enantiomer of Formula (Ib) or Formula (IIb). Cell survival was determined by the 3-(4,5-dimethylthiazol-2-yl)-5-(3-carboxy-methoxyphenyl)-2-(4-sulfophenyl)-2H-tetrazolium inner salt (MTS) assay at 2 or 7 days after serum withdrawal.
At the end of the experiment, cells were washed with fresh medium and incubated with MTS solution in a humidified 37° C. with 5% CO2 incubator for 1.5 hr. After the incubation period, the cells were immediately analyzed using a Softmax program (Molecular Devices). […] The assay is based on the cellular conversion of the tetrazolium salt, MTS, into a formazan that is soluble in tissue culture medium and measured directly at 490 nm in 96-well assay plates. The absorbance is directly proportional to the number of living cells in culture. The arbitrary absorbance reading in control cells is expressed as 100% survival rate.

In the case of `NC(=O)OC[C@H](OC(N)=O)c1ccccc1Cl` [Formula (IIb)], the “7 Day Survival Rate (%)” value is on record as 85.2 ± 0.6^2% and the “2 Day Survival Rate (%)” value is reported as 66.4 ± 5.4^1%.

`NC(=O)OC[C@@H](O)c1ccccc1Cl` [Formula (Ib)]: the “7 Day Survival Rate (%)” value is 79.9 ± 4.0^2% and the “2 Day Survival Rate (%)” value is recorded as 69.4 ± 1.7^1%.

The record behind these values is patent US20090005442A1, “CARBAMATE COMPOUNDS FOR USE IN PREVENTING OR TREATING NEURODEGENERATIVE DISORDERS” (priority 2001, published 2009).
